Several values for one entry are separate records, joined by “and”; a condition that tells them apart may be missing. Identical values can stand only once. Counter-ions that a name gives are not always drawn. Like-named read-outs stand apart in the source and are kept apart here.
Tests used:
A549-ACE2 cells = experiment: cells; type: cell-based; conditions: for activation at 10 µM: A549-ACE2, 24 h, read-out: PLD_Effect(%) A549-ACE2
[1] = cited from earlier work; for IC50: read-out: IC50 (value); for Ki: read-out: Ki (value)
Vero-E6 cells = experiment: cells; type: cell-based; conditions: for activation at 10 µM: Chlorocebus sabaeus, Vero C1008, 24 h
[2] = value is the negative log10 of mol/L
[3] = read-out: PLD_Effect(%) VERO-E6

Row | Compound | activation at 10 µM (A549-ACE2 cells) | activation at 10 µM (Vero-E6 cells; [3]) | activation at 10 µM (Vero-E6 cells; read-out: PL_Result) | also measured
1 | CN1C2CCC1CC(OC(c1ccc(F)cc1)c1ccc(F)cc1)C2 (stereo not drawn) | 76.3% | 61.5% | – | Log 1/Ki (value) [1]: 7.86; pchembl_value (Log 1/Ki) [1]: 7.86; pchembl_value (Ki) [1, 2]: 6.84 and 6.07 and 7.94
2 | CN1CCN(C2=Cc3ccccc3Oc3ccc(Cl)cc32)CC1 [2-CMDO] | 92.5% | 61.3% | – | –
3 | C[C@H](Oc1cc(-c2cnn(C3CCNCC3)c2)cnc1N)c1c(Cl)ccc(F)c1Cl [(S)-crizotinib] | 102% | 70.2% | – | IC50 [1]: 680 nM; Ki [1]: 161 nM; pchembl_value (IC50) [1, 2]: 6.86 and 6.17; pchembl_value (Kd) [1, 2]: 7.43 and 6.28 and 7.41; pchembl_value (Ki) [1, 2]: 6.79
4 | Nc1nc2c(c(N3CCNCC3)n1)CCC1=C2[C@@H]2CCCC[C@@H]2O1 [A-987306] | 52.2% | 70.7% | – | pKi (value) [1]: 7.1; pchembl_value (pKi) [1]: 7.10; pchembl_value (IC50) [1, 2]: 8.41 and 10.06 and 8.24
5 | C[C@@H]1CCCN1CCc1cc2cc(-c3ccc(C#N)cc3)ccc2o1 [ABT 239 tartrate] | 67.4% | 66.8% | – | Ki [1]: 0.45 nM
6 | CC(=O)c1ccc2c(c1)N(CCCN1CCN(CCO)CC1)c1ccccc1S2 [ACETOPHENAZINE MALEATE] | 52.6% | 74.4% | – | –
7 | CCN(CCCc1ccccc1)CCCc1ccccc1 [ALVERINE CITRATE] | 63.7% | 58.9% | – | AC50 [1]: 29 nM
8 | CN1CCCC(n2nc(Cc3ccc(Cl)cc3)c3ccccc3c2=O)CC1 (stereo not drawn) [AZELASTINE HYDROCHLORIDE] | 57.3% | 57.2% | – | pIC50 (value) [1]: 7.0; pchembl_value (AC50) [1]: 7.62; pchembl_value (pIC50) [1]: 7.00; AC50 ([1]; read-out: AC50 (value)): 24 nM; IC50 [1]: 1000 nM; pchembl_value (IC50) [1, 2]: 6.00
9 | CN(CCc1ccc(Cl)c(Cl)c1)CCN1CCCC1 [BD-1008] | 62.5% | 51.3% | – | –
10 | CN(C)CCCOc1nn(Cc2ccccc2)c2ccccc12 [BENZYDAMINE HYDROCHLORIDE] | 65.2% | 51.2% | – | –
11 | CC(COc1ccccc1Cc1ccccc1)N1CCCCC1 (stereo not drawn) [Benproperine Phosphate] | 81.6% | 72% | – | –
12 | O=C(CN1C2=NCCN2c2ccccc21)c1ccc(-c2ccccc2)cc1 [CCT-031374] | 69.9% | 53.9% | – | –
13 | O=C1NC(=O)c2cc(Nc3ccccc3)c(Nc3ccccc3)cc21 [CGP-52411, reference compound] | – | – | -10.9% | result_KI (A549-ACE2 cells): -10.8674 percent effect; result_ITMP (Vero-E6 cells): -7.23 percent effect
14 | Cc1[nH]c2ccc(Cl)cc2c1C1=CCNCC1 [EMD-386088] | 79.1% | 96.8% | – | –
15 | CCn1c2ccccc2c2cc(CNCc3ccccc3OC)ccc21 [HLCL-61 (hydrochloride)] | 83% | 56.5% | – | –
16 | CCCCN(CCCC)CCC(O)c1cc2c(Cl)cc(Cl)cc2c2cc(C(F)(F)F)ccc12 (stereo not drawn) [Halofantrine?HCl] | 77.7% | 68.8% | – | –
17 | c1ccc2c(CCNc3ccc(Nc4ccncc4)cc3)c[nH]c2c1 [JNJ 26854165 (Serdemetan)] | 88.4% | 74% | – | –
18 | C[C@@H](O[C@H]1OCCN(Cc2nn[nH]c2CN(C)C)[C@H]1c1ccc(F)cc1)c1cc(C(F)(F)F)cc(C(F)(F)F)c1 [L-760735] | 107% | 71.2% | – | –
19 | O=C(Nc1ncc(SCCN2CCCC2)s1)[C@]1(c2ccc(S(=O)(=O)C3CC3)cc2)C[C@H]1C1CCCCC1 [LY2608204] | 95.6% | 55.8% | – | –
20 | COc1cc(CN(CCN)C(=O)c2cccs2)ccc1OCc1ccccc1 [M8-B] | 72.2% | 85.4% | – | –
21 | O=C(NCCN1CCC2(CC1)C(=O)NCN2c1cccc(F)c1)c1ccc(F)c(F)c1 [ML-298] | 97% | 60.1% | – | –

Row | Compound | activation at 10 µM (A549-ACE2 cells) | activation at 10 µM (Vero-E6 cells; [3]) | activation at 10 µM (Vero-E6 cells; read-out: PL_Result) | also measured
22 | CCn1c2ccccc2c2cc(CNC)ccc21 [PhiKan-083] | 83.6% | 73.3% | – | –
23 | COc1cccc(CCc2ccccc2OCC[C@@H]2C[C@@H](O)CN2C)c1 [R-96544] | 92.6% | 90.4% | – | –
24 | CCC(C)CNCC(=O)N1CCc2sccc2C1COc1cccc(C)c1 (stereo not drawn) [RU-SKI-43] | 85.5% | 57.8% | – | –
25 | COc1cc2c(cc1O)C(CCc1ccc(Cl)cc1)N(C)CC2 (stereo not drawn) [Ro-04-5595] | 61% | 64% | – | –
26 | C[C@H](N)Cn1ccc2cc(F)c(Cl)cc21 [Ro-60-0175 fumarate] | 82.7% | 50.7% | – | –
27 | COc1ccc2[nH]c3c(-c4cccc5ccccc45)nccc3c2c1 [SP-141, reference compound] | – | – | – | result_KI (A549-ACE2 cells): -11.253 percent effect; result_ITMP (Vero-E6 cells): 16.13 percent effect
28 | O=C(NCCN1CCC2(CC1)C(=O)NCN2c1cccc(F)c1)c1ccc2ccccc2c1 [SPE_K93317811] | – | – | 113% | –
29 | O=S(=O)(NCC1CC1)c1ccc(Nc2nccc(N3CCCc4cc(O)ccc43)n2)cc1 [SPE_K94659840] | – | – | 3.48% | –
30 | COc1cc(N2CCC(O)CC2)ccc1Nc1cc(Nc2ccccc2S(=O)(=O)C(C)C)c2cc[nH]c2n1 [SPE_K94853001] | – | – | -4.69% | –
31 | CCCN(CCC)S(=O)(=O)c1ccc(C(=O)O)cc1 [SPE_K95237249] | – | – | 0.643% | –
32 | O=c1oc(-c2ccc(C(F)(F)F)cc2)nn1Cc1cc(Cl)ccc1O [SPE_K95609758] | – | – | 5.3% | –
33 | COc1cc2c(cc1OC)[C@@H]1CC(=O)[C@@H](CC(C)C)CN1CC2 [SPE_K95739795] | – | – | -5.22% | –
34 | O=C(Cn1ccnc1[N+](=O)[O-])NCCO [SPE_K96042922] | – | – | -3.79% | –
35 | Nc1ccn(C[C@@H](CO)OCP(=O)(O)O)c(=O)n1 [SPE_K96153583] | – | – | -12.6% | –
36 | C[C@H](N)[C@H](O)c1cccc(O)c1 [SPE_K96253961] | – | – | -12.2% | –
37 | NC[C@H]1O[C@H](O[C@H]2[C@H](O)[C@@H](O[C@H]3O[C@H](CO)[C@@H](O)[C@H](N)[C@H]3O)[C@H](N)C[C@@H]2N)[C@H](N)C[C@@H]1O [SPE_K96342952] | – | – | -3.75% | –
38 | O=[N+]([O-])c1cn2c(n1)OC[C@@H](OCc1ccc(OC(F)(F)F)cc1)C2 [SPE_K96671969] | – | – | -12.7% | –
39 | CC(C)COC(=O)c1ccc(N)cc1 [SPE_K96714749] | – | – | 1.09% | –
40 | CC(C)c1ccc(CC(=O)N2CCC[C@@H](c3cccc(OC(C)(C)C(=O)O)c3)C2)cc1 [SPE_K96843359] | – | – | -10.8% | –
41 | Cc1ccc(=O)n(-c2ccccc2)c1 [SPE_K96862998] | – | – | 4.03% | –
42 | C#C[C@]1(O)CC[C@H]2[C@@H]3CCC4=CC(=O)CCC4=C3C=C[C@@]21CC [SPE_K97472745] | – | – | -10.6% | –

Row | Compound | activation at 10 µM (A549-ACE2 cells) | activation at 10 µM (Vero-E6 cells; [3]) | activation at 10 µM (Vero-E6 cells; read-out: PL_Result) | also measured
43 | OC[C@H]1O[C@H](O)C[C@@H](O)[C@@H]1O [SPE_K97808269] | – | – | -3.49% | –
44 | C[C@@H](c1ccc2nccn2c1)n1nnc2ncc(-c3cnn(C)c3)nc21 [SPE_K98028353] | – | – | -4.44% | –
45 | C=CCc1ccc(O)c(-c2ccc(O)c(CC=C)c2)c1 [SPE_K98493452] | – | – | -13.9% | –
46 | C[C@]12CC[C@H]3[C@@H](CCC4=CC(=O)CC[C@@]43C)[C@@H]1CC[C@@H]2C(=O)CO [SPE_K98521173] | – | – | -5.9% | –
47 | O=C(O)c1ccccc1-c1ccc(C(F)(F)F)cc1 [SPE_K99506538] | – | – | 0.609% | –
48 | CC(=O)[C@@]1(O)CC[C@H]2[C@@H]3C[C@H](C)C4=CC(=O)CC[C@]4(C)[C@H]3CC[C@@]21C [SPE_K99615199] | – | – | -9.68% | –
49 | CC1(C)CNc2cc(NC(=O)c3cccnc3NCc3ccncc3)ccc21 [SPE_K99616396] | – | – | -4.48% | –
50 | Cc1cc2c(cc1C(F)(F)F)N(C(=O)Nc1ccc(Oc3cccnc3C)nc1)CC2 [SPE_K99968849] | – | – | 3.28% | –
51 | NC(=O)C1=CN([C@@H]2O[C@H](COP(=O)(O)OP(=O)(O)OC[C@H]3O[C@@H](n4cnc5c(N)ncnc54)[C@H](OP(=O)(O)O)[C@@H]3O)[C@@H](O)[C@H]2O)C=CC1 [SPE_M06409173] | – | – | -2.48% | –
52 | OCc1cc([C@@H](O)CNCCCCCCOCCOCc2c(Cl)cccc2Cl)ccc1O [SPE_M36487418] | – | – | 28.8% | –
53 | CC(C)(C)NCC(O)c1cc(O)cc(O)c1 (stereo not drawn) [SPE_M79902621] | – | – | -4.19% | –
54 | CN(C)CCCN1c2ccccc2Sc2ccc(C(F)(F)F)cc21 [TRIFLUPROMAZINE HYDROCHLORIDE] | – | – | – | AC50 ([1]; read-out: AC50 (value)): 3 nM
55 | O=C(O[C@H]1CN2CCC1CC2)N(Cc1cc(F)c(F)c(F)c1)c1cccc(F)c1 [Tarafenacin (D-tartrate)] | 91.5% | 71.4% | – | –
56 | O[C@H]([C@H](O)[C@@H]1CO1)[C@H]1CO1 [VAL-083, reference compound] | – | – | – | result_KI (A549-ACE2 cells): -10.5072 percent effect; result_ITMP (Vero-E6 cells): -1.6 percent effect
57 | Cc1nc2ccc(Oc3ccc(F)cc3)cc2c(=O)n1C[C@H]1CCCN(C(C)C)C1 [YIL-781] | 52.7% | 56.3% | – | –
58 | CN1CC2c3ccccc3Oc3ccc(Cl)cc3C2C1 (stereo not drawn) [asenapine maleate] | 66.1% | 65.2% | – | –
59 | CC(COc1ccccc1Cc1ccccc1)N1CCCCC1 (stereo not drawn) [benproperine, reference compound] | – | – | – | PLD propensity (Vero-E6 cells): high PLD propensity
60 | Clc1ccc2c(c1)N=C(N1CCNCC1)c1ccccc1N2 [desmethylclozapine] | 89.5% | 77.7% | – | –
61 | CCc1cc(Cl)c(OC)c(C(=O)NC[C@@H]2CCCN2CC)c1O [eticlopride, reference compound] | – | – | – | result_KI (A549-ACE2 cells): 92.2773 percent effect; result_ITMP (Vero-E6 cells): 41.39 percent effect
62 | CCSc1ccc2c(c1)N(CCCN1CCN(C)CC1)c1ccccc1S2 [thiethylperazine] | 98% | 59.1% | – | –
63 | Ac-PHSCN-NH2 [SPE_K00521308] | – | – | – | PL_Result (Vero-E6 cells): -0.965
